Values quoted from earlier work, collected in patent US20010041964A1, “PHARMACOKINETIC-BASED DRUG DESIGN TOOL AND METHOD” (priority 1998, published 2001).

Experiments:
[1] = tested on: intestinal transport; details: permeability standard
[2] = tested on: rabbit intestinal tissue (duodenum, jejunum, ileum, colon); details: donor concentration per compound; for Pe (cm/s) Colon: rabbit colon; for Pe (cm/s) Duodenum: rabbit duodenum; for Pe (cm/s) Ileum: rabbit ileum; for Pe (cm/s) Jejunum: rabbit jejunum
[3] = not given; remark: listed apart in the source
[4] = not given; remark: listed apart in the source
[5] = oral, human

Row | Structure (SMILES) | Transport mechanism [1] | Pe (cm/s) Colon [2] | Pe (cm/s) Duodenum [2] | Pe (cm/s) Ileum [2] | Pe (cm/s) Jejunum [2] | k12 (Appendix 2, mass-volume model) | k21 (Appendix 2, mass-volume model) | k_elim (Appendix 2, mass-volume model) | Plasma Kinetics Fluid Volume (Table 11) | Plasma Kinetics k12 (Table 11) | Plasma Kinetics k21 (Table 11) | Plasma Kinetics kelim (Table 11) | Bioavailability of fasted patients in clinical trials ([3]; fasted patients, Phase I studies) | Cmax (mcg/ml), Clinical 1505a ([3]; human clinical study 1505a) | Tmax (hrs), Clinical 1505a ([3]; human clinical study 1505a) | Cmax (mcg/ml), Clinical 1505b ([3]; human clinical study 1505b) | Tmax (hrs), Clinical 1505b ([3]; human clinical study 1505b) | In vivo biotransformation [4] | Absorption ([4]; in vivo) | Bioavailability in humans when orally administered [5]
1 | O=C[C@H](O)[C@@H](O)[C@H](O)[C@H](O)CO [D-glucose] | Carrier-mediated Influx | 9.28e-06 cm/s | 4.55e-06 cm/s | 1.45e-05 cm/s | 1.02e-05 cm/s | – | – | – | – | – | – | – | – | – | – | – | – | – | – | –
2 | Nc1nc2c(ncn2COC(CO)CO)c(=O)[nH]1.[Na] [Gancyclovir, 9-(1,3-dihydroxy-2-propoxymethyl)guanine, monosodium salt] | – | – | – | – | – | k12 = .839 | k21 = .67 | k_elim = .161 | 76,800 ml | 0.839 | 0.670 | 0.161 | 3-20% | 0.55 µg/mL | 1.43 h | 0.59 µg/mL | 1.43 h | no in vivo biotransformation | poorly absorbed | –
3 | C[C@]12CCC(=O)C=C1CC[C@@H]1[C@@H]2[C@@H](O)C[C@@]2(C)[C@H]1CC[C@]2(O)C(=O)CO [hydrocortisone] | – | 3.85e-06 cm/s | 3e-07 cm/s | 2.91e-06 cm/s | 1.31e-06 cm/s | – | – | – | – | – | – | – | – | – | – | – | – | – | – | –
4 | OC[C@@H](O)[C@@H](O)[C@H](O)[C@H](O)CO [mannitol] | Passive Paracellular | 5.53e-06 cm/s | 1.73e-06 cm/s | 4.02e-06 cm/s | 3.54e-06 cm/s | – | – | – | – | – | – | – | – | – | – | – | – | – | – | approximately 10%
